Holding throughout (assay type): cell-based
The test system of data set [1] is ovarian cancer cells. Nature of the data set: Cell titer glo cell viability assay. How it is done: Measurement of Intracellular ATP Levels. T80, HEY, and SKOV3 ovarian cells were seeded in triplicate for each treatment group at 5000 cells per well into each well of a 96 well white-opaque plate. Following overnight cell attachment, cells were treated for 18 hours with appropriate doses of arsenic trioxide or geldanamycin (0 mM, 2 μM, 5 μM, 10 μM, 25 μM, and 50 μM). Following termination of the cell treatments, the media was removed from the wells and replaced with 100 μl of phosphate-buffered saline (PBS). The plate was equilibrated to room temperature, 100 μl of Cell-Titer Glo reagent (Promega, Madison, Wis.) was added, and mixed on a plate shaker for 2 minutes. The plate was further incubated for 10 minutes at room temperature prior to reading with a Biotek luminescence plate reader to obtain relative light unit (RLU) measurements. Empty wells (containing no cells) were utilized as a correction for background luminescence. All experiments were performed in triplicate.
In general terms: ATP-based viability assays read luminescence as a measure of living cells.

In data set [2] the test system is HSP27. Nature of the data set: Western analysis of HSP27. The conditions noted are these: HEY, 18 hours As2O3. The protocol:
Proteins were resolved on an 8%, 12%, or 15% SDS-PAGE gel (as appropriate) and electrophoretically transferred to polyvinyldifluoride (PVDF) membranes. After blocking with 5% (w/v) milk in TBST (Tris-Buffered Saline containing 0.1% Tween-20) for one hour at room temperature, membranes were incubated with primary antibodies (at appropriate dilution) overnight at 4° C., followed by extensive washing and incubation for 1 hour with the appropriate horseradish peroxidase-conjugated secondary antibodies (BioRad, Hercules, Calif.). Blots were washed extensively. A rabbit polyclonal EVI1 antibody was obtained (1:3000 dilution, St. Jude's Children's Hospital, Memphis, Tenn.). SnoN rabbit polyclonal (1:1000 dilution), PML, and p21 SMURF2 rabbit polyclonal (1:500 dilution), MRP1 mouse monoclonal (1:500 dilution) and GAPDH mouse monoclonal (1:250 dilution) antibodies were obtained from Santa Cruz Biotechnology (Santa Cruz, Calif.). TGFβRII rabbit polyclonal (1:1000 dilution) antibody was obtained from Strategic Diagnostics (Newark, Del.). Smad2/3 rabbit polyclonal (1:1000 dilution), Beclin-1 rabbit polyclonal (1:1000 dilution), AKT rabbit polyclonal (1:1000 dilution), TAK1 rabbit polyclonal (1:1000 dilution), PARP rabbit polyclonal (1:1000 dilution), Beclin-1 rabbit polyclonal (1:1000 dilution), caspase-3 rabbit polyclonal (1:1000) which detects the pro-caspase form, and ATG5 rabbit polyclonal (1:1000 dilution), LC3-II rabbit polyclonal (1:1000 dilution) antibodies were obtained from Cell Signaling Technology (Danvers, Mass.). […]
The clinical inhibitors As2O3, geldanamycin (17-AAG) (dissolved in dimethylsulfoxide [DMSO]), and MG132 (dissolved in DMSO) were obtained from Sigma-Aldrich (St. Louis, Mo.), Fisher Scientific (Pittsburgh, Pa.), and Alexis Biochemicals (Farmingdale, N.Y.), respectively. […] After the appropriate incubation time (6 or 18 hours), cell lysates were collected, protein quantified, and SDS-PAGE/western analysis was performed. In addition, for selected studies, RNA was isolated, quantified, and used for qPCR analysis.

Data set [3] relates to glutathione (GSH). Nature of the data set: GSH-Glo glutathione assay. The conditions noted are these: T80, HEY, SKOV3; 18 hours. How it is done:
Glutathione (GSH) was measured using the GSH Glo kit (Promega). Briefly, T80, HEY, and SKOV3 ovarian cells were plated at 5000 cells/well in opaque white 96 well plates. Following overnight attachment, cells were treated with As2O3 for 18 hours. Following cell treatments, the media was discarded and fresh PBS was added for washout followed by the addition of 100 μl of GSH-Glo reagent. Following a 2 minute shake, the cells were incubated at room temperature for 30 minutes followed by the addition of reconstituted luciferase detection reagent. The cells were incubated for a further 15 minutes at room temperature and the plate was read on a Biotek luminescence plate reader. All measurements were performed in triplicate.

Arsenic trioxide [As2O3]: the “reduction of cell growth (cellular viability)” value in data set [1] (25 μM, 18 hour treatment, relative to control cells) is reported as 50%. Besides, the “sensitivity of cellular viability to As2O3” value in data set [1] (SKOV3 (high EVI1) compared to T80 (low EVI1), 2-50 μM, 18 hours) is recorded as “more resistant”. In addition, the HSP27 expression entry in data set [2] is “increased”. Also, the GSH levels entry in data set [3] is listed as “markedly reduced”.

The values are drawn from patent publication US8211646B1, “Methods of treating ovarian cancer by modulating SnoN” (University of South Florida, priority 2008, dated 2012).
